Read-outs that look alike come from different tables or passages of the source. Values belong to the compound of their own block, whether it stands above or below them.
Tests used:
[1] = system: A7700 enzyme; assay: Effect of metal ions on enzyme activity; type: biochemical, Streptomyces sp. A7700; details: metalic salt 1.0 mM
Experimental: (§1) The above mixture (3.0 ml) was introduced into a quartz cell at 37° C., to which was immediately added and mixed the enzyme solution (50 μl), in a constant temperature (37° C.) cell-holder of a spectrophotometer. Then the mixture was incubated for exactly 5 minutes after 2 minutes of mixing with the enzyme solution, and the variation of absorption (optical density ΔA545) at 545 nm is measured.
(§2) The activity of the enzyme is calculated by the following equation: [formula] 2. Substrate specificity:
(§3) The effect of metal ions is shown in Table 5, in which ions other than Cu^++ show no effect on the enzymes.

[2] = system: A8063 enzyme; assay: Effect of metal ions on enzyme activity; type: biochemical, Streptomyces sp. A8063; details: metalic salt 1.0 mM
Experimental: as §1, §2, §3

[3] = system: A7700 enzyme; assay: Substrate specificity: relative activity on various substrates; type: biochemical, Streptomyces sp. A7700
Experimental: as §1, §2
(§4) The relative activities (%) of enzyme L-glutamic acid oxidases produced by Streptomyces sp. A7700 (hereinafter designated as A7700 enzyme) and by Streptomyces sp. A8063 (hereinafter designated as A8063 enzyme), respectively, on various substrates as compared with L-glutamic acid, are measured.

[4] = system: A8063 enzyme; assay: as above; type: biochemical, Streptomyces sp. A8063
Experimental: as §1, §2, §4

[5] = system: A8063 enzyme; assay: Effect of surface active agents and other substances on enzyme activity; type: biochemical, Streptomyces sp. A8063
Experimental: as §1
(§5) The activity of the enzyme is calculated by the following equation: [formula] 2.

[6] = system: A7700 enzyme; assay: as above; type: biochemical, Streptomyces sp. A7700
Experimental: as §1, §5

[7] = system: A8063 enzyme; details: read-out: Km value; A8063 enzyme against L-glutamic acid
[8] = system: A7700 enzyme; details: read-out: Km value; A7700 enzyme against L-glutamic acid

SMILES: [Cl-].[Cl-].[Co+2] [CoCl2]
- Relative activity (%) [1]: 99.4%
- Relative activity (%) [2]: 98.0%

- Relative activity (%) on substrate as compared with L-glutamic acid [3]: 0%
- Relative activity (%) on substrate as compared with L-glutamic acid [4]: 0%
SMILES: CC(C)[C@H](N)C(=O)O [L-valine]

SMILES: [Ca+2].[Cl-].[Cl-] [CaCl2]
- Relative activity (%) [1]: 98.8%
- Relative activity (%) [2]: 103.0%

SMILES: CCN [ethylamine]
- Relative activity (%) on substrate as compared with L-glutamic acid [3]: 0%
- Relative activity (%) on substrate as compared with L-glutamic acid [4]: 0%

- Relative activity (%) on substrate as compared with L-glutamic acid [3]: 0%
- Relative activity (%) on substrate as compared with L-glutamic acid [4]: 0%
SMILES: N[C@@H](Cc1c[nH]cn1)C(=O)O [L-histidine]

- Relative activity (%) ([5]; A8063, additive 0.01 mM): 100.7%
- Effect of additive on enzyme activity (in words) ([5]; A8063 enzyme): not affected
- Relative activity (%) ([6]; A7700, additive 0.01 mM): 100.7%
- Effect of additive on enzyme activity (in words) ([6]; A7700 enzyme): not affected
SMILES: Cc1cc2nc3c(=O)[nH]c(=O)nc-3n(C[C@H](O)[C@H](O)[C@H](O)COP(=O)(O)OP(=O)(O)OC[C@H]3O[C@@H](n4cnc5c(N)ncnc54)[C@H](O)[C@@H]3O)c2cc1C [FAD]

SMILES: [Cl][Fe]([Cl])[Cl] [FeCl3]
- Relative activity (%) [1]: 109.2%
- Relative activity (%) [2]: 103.0%

- Relative activity (%) on substrate as compared with L-glutamic acid [3]: 0%
- Relative activity (%) on substrate as compared with L-glutamic acid [4]: 0%
SMILES: C[C@@H](O)[C@H](N)C(=O)O [L-threonine]

- Relative activity (%) on substrate as compared with L-glutamic acid [3]: 0%
- Relative activity (%) on substrate as compared with L-glutamic acid [4]: 0%
SMILES: NCCc1ccc(O)cc1 [tyramine]

SMILES: CCCCCCCCCCCCCCCC[N+](C)(C)C [CTACl]
- Relative activity (%) ([5]; A8063, additive 0.1%): 94.2%
- Relative activity (%) ([6]; A7700, additive 0.1%): 98.6%

SMILES: NO [hydroxylamine]
- Relative activity (%) on substrate as compared with L-glutamic acid [3]: 0%
- Relative activity (%) on substrate as compared with L-glutamic acid [4]: 0%

- Relative activity (%) on substrate as compared with L-glutamic acid [3]: 0%
- Relative activity (%) on substrate as compared with L-glutamic acid [4]: 0%
SMILES: CCCCN [butylamine]

SMILES: O=C(O)c1cc[c]([Hg][Cl])cc1 [PCMB]
- Relative activity (%) ([5]; A8063, additive 0.002%): 98.2%
- Relative activity (%) ([6]; A7700, additive 0.002%): 107.6%

SMILES: N=C(N)NCCC[C@H](N)C(=O)O [L-arginine]
- Relative activity (%) on substrate as compared with L-glutamic acid [3]: 0%
- Relative activity (%) on substrate as compared with L-glutamic acid [4]: 0%

SMILES: NCCCC[C@H](N)C(=O)O [L-lysine]
- Relative activity (%) on substrate as compared with L-glutamic acid [3]: 0%
- Relative activity (%) on substrate as compared with L-glutamic acid [4]: 0%

- Relative activity (%) ([5]; A8063, additive 0.01 mM): 97.1%
- Effect of additive on enzyme activity (in words) ([5]; A8063 enzyme): not affected
- Relative activity (%) ([6]; A7700, additive 0.01 mM): 88.9%
- Effect of additive on enzyme activity (in words) ([6]; A7700 enzyme): not affected
SMILES: Cc1cc2nc3c(=O)[nH]c(=O)nc-3n(C[C@H](O)[C@H](O)[C@H](O)COP(=O)(O)O)c2cc1C [FMN]

SMILES: [Ba+2].[Cl-].[Cl-] [BaCl2]
- Relative activity (%) [1]: 102.5%
- Relative activity (%) [2]: 103.7%

- Relative activity (%) on substrate as compared with L-glutamic acid [3]: 0%
- Relative activity (%) on substrate as compared with L-glutamic acid [4]: 0%
SMILES: N[C@@H](CO)C(=O)O [L-serine]

- Relative activity (%) on substrate as compared with L-glutamic acid [3]: 0%
- Relative activity (%) on substrate as compared with L-glutamic acid [4]: 0%
SMILES: CSCC[C@H](N)C(=O)O [L-methionine]

- Relative activity (%) on substrate as compared with L-glutamic acid [3]: 0%
- Relative activity (%) on substrate as compared with L-glutamic acid [4]: 0%
SMILES: C[C@H](N)C(=O)O [L-alanine]

SMILES: N[C@@H](Cc1ccc(O)cc1)C(=O)O [L-tyrosine]
- Relative activity (%) on substrate as compared with L-glutamic acid [3]: 0%
- Relative activity (%) on substrate as compared with L-glutamic acid [4]: 0%

SMILES: [Cl-].[Cl-].[Mg+2] [MgCl2]
- Relative activity (%) [1]: 102.5%
- Relative activity (%) [2]: 103.4%

SMILES: [Cl-].[Cl-].[Zn+2] [ZnCl2]
- Relative activity (%) [1]: 106.1%
- Relative activity (%) [2]: 110.7%

- Relative activity (%) on substrate as compared with L-glutamic acid [3]: 0%
- Relative activity (%) on substrate as compared with L-glutamic acid [4]: 0%
SMILES: NCc1ccccc1 [benzylamine]

SMILES: CCCCCCCCCCCCOS(=O)(=O)O [SDS]
- Relative activity (%) ([5]; A8063, additive 0.1%): 93.1%
- Relative activity (%) ([6]; A7700, additive 0.1%): 106.3%

SMILES: C[C@H](CCC(=O)O)[C@H]1CC[C@H]2[C@@H]3[C@H](O)C[C@@H]4C[C@H](O)CC[C@]4(C)[C@H]3C[C@H](O)[C@]12C [sodium cholate]
- Relative activity (%) ([5]; A8063, additive 0.1%): 100.0%
- Relative activity (%) ([6]; A7700, additive 0.1%): 104.2%

SMILES: O=C(O)CN(CCN(CC(=O)O)CC(=O)O)CC(=O)O [EDTA]
- Effect of additive on enzyme activity (in words) [5]: lack of effect
- Relative activity (%) [5]: 100.7%
- Effect of additive on enzyme activity (in words) [6]: lack of effect
- Relative activity (%) [6]: 93.8%

SMILES: CN [methylamine]
- Relative activity (%) on substrate as compared with L-glutamic acid [3]: 0%
- Relative activity (%) on substrate as compared with L-glutamic acid [4]: 0%

SMILES: [Cl][Mn][Cl] [MnCl2]
- Relative activity (%) [1]: 108.6%
- Relative activity (%) [2]: 105.7%

- Activity of enzyme on substrate (in words) [3]: specific activity
- Relative activity (%) on substrate as compared with L-glutamic acid [3]: 100%
- Km [7]: ~1.1 mM
- Km [8]: ~560 µM
- Activity of enzyme on substrate (in words) [4]: specific activity
- Relative activity (%) on substrate as compared with L-glutamic acid [4]: 100%
SMILES: N[C@@H](CCC(=O)O)C(=O)O [L-glutamic acid]

- Relative activity (%) on substrate as compared with L-glutamic acid [3]: 0%
- Relative activity (%) on substrate as compared with L-glutamic acid [4]: 0%
SMILES: CC[C@H](C)[C@H](N)C(=O)O [L-isoleucine]

- Relative activity (%) on substrate as compared with L-glutamic acid [3]: 0%
- Relative activity (%) on substrate as compared with L-glutamic acid [4]: 0%
SMILES: N[C@H](CCC(=O)O)C(=O)O [D-glutamic acid]

- Relative activity (%) on substrate as compared with L-glutamic acid [3]: 0%
- Relative activity (%) on substrate as compared with L-glutamic acid [4]: 0%
SMILES: CCCN [propylamine]

SMILES: [N-]=[N+]=[N-].[Na+] [NaN3]
- Relative activity (%) ([5]; A8063, additive 10 mM): 102.6%
- Effect of additive on enzyme activity (in words) ([5]; A8063 enzyme): not inhibited
- Relative activity (%) ([6]; A7700, additive 10 mM): 101.4%
- Effect of additive on enzyme activity (in words) ([6]; A7700 enzyme): not inhibited

- Relative activity (%) on substrate as compared with L-glutamic acid [3]: 0%
- Relative activity (%) on substrate as compared with L-glutamic acid [4]: 0%
SMILES: N[C@@H](Cc1ccccc1)C(=O)O [L-phenylalanine]

SMILES: [Cl][Ni][Cl] [NiCl2]
- Relative activity (%) [1]: 101.8%
- Relative activity (%) [2]: 102.3%

SMILES: [Cl][Cu][Cl] [CuCl2]
- Relative activity (%) [1]: 50.3%
- Relative activity (%) [2]: 62.1%
